Measured values: PubChem BioAssay (NCI)
“And” between values parts separate entries of the source, which are not always exact repeats. Identical values can stand only once.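 Growth conditions: 96-well plates. Treatment: test compound, 48 hours, 5 concentrations. Analysis: linear interpolation between bracketing concentrations; unreached endpoints set to highest concentration. Abbreviation: GI50, concentration required for 50% inhibition of growth. TGI: concentration producing complete growth inhibition.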

Experiments:
Assay in all cases: NCI-60 cell line screen, 48 h
DU-145 prostate = system: DU-145 prostate
HOP-62 NSCLC = system: HOP-62 NSCLC
MDA-MB-435 = system: MDA-MB-435
MDA-N = system: MDA-N
RXF 393 renal = system: RXF 393 renal
SN12C renal = system: SN12C renal
SNB-19 CNS = system: SNB-19 CNS
UACC-62 melanoma = system: UACC-62 melanoma
HL-60(TB) leukemia = system: HL-60(TB) leukemia
LOX IMVI melanoma = system: LOX IMVI melanoma

| SMILES | TGI (DU-145 prostate) | TGI (HOP-62 NSCLC) | TGI (MDA-MB-435) | TGI (MDA-N) | TGI (RXF 393 renal) | TGI (SN12C renal) | TGI (SNB-19 CNS) | TGI (UACC-62 melanoma) | TGI (HL-60(TB) leukemia) | TGI (LOX IMVI melanoma) | GI50 (HOP-62 NSCLC) | GI50 (SNB-19 CNS) | GI50 (DU-145 prostate) | GI50 (HL-60(TB) leukemia) | GI50 (LOX IMVI melanoma) | GI50 (MDA-MB-435) | GI50 (SN12C renal) | GI50 (UACC-62 melanoma) |
| --- | --- | --- | --- | --- | --- | --- | --- | --- | --- | --- | --- | --- | --- | --- | --- | --- | --- | --- |
| CC(=N/NC(=S)N1CCCCCC1)/C(C)=N\NC(=S)N1CCCCCC1 | 8.66 µM | 15.2 µM | 3.41 µM | > 100 µM | 8.88 µM | 3.99 µM | 48.1 µM | 12.7 µM |  |  |  |  |  |  |  |  |  |  |
| O=C(O)c1cc(N=Nc2ccc([N+](=O)[O-])cc2)ccc1O | > 100 µM | > 100 µM | > 100 µM | > 100 µM | > 100 µM | > 100 µM | > 100 µM | > 100 µM | 73.7 µM | > 100 µM |  |  |  |  |  |  |  |  |
| COc1ccc(/C=C2/N=C(N/N=C\C(O)C(O)C(O)CO)NC2=O)cc1 (stereo not drawn) | > 100 µM | > 100 µM | > 100 µM | > 100 µM | > 100 µM | > 100 µM | > 100 µM |  | > 100 µM | > 100 µM | > 100 µM and 49.6 µM | > 100 µM and 48.4 µM |  |  |  |  |  |  |
| COc1ccc2c(c1)CC[C@@H]1[C@@H]2CC[C@]2(C)/C(=N/OCCN3CCCC3)CC[C@@H]12 | 15.5 µM | 4.67 µM | 2.43 µM | 3.98 µM | 4.16 µM | 15.9 µM | 28.1 µM | 3.53 µM | 5.53 µM | 3.19 µM |  |  |  |  |  |  |  |  |
| [N-]=[N+]=CC(=O)C1(C(=O)C=[N+]=[N-])CC1 |  | > 100 µM |  |  | > 100 µM | > 100 µM | > 100 µM |  | > 100 µM | > 100 µM |  |  |  |  |  |  |  |  |
| C/C=C1\CC(C(=O)OCC)CCCCCCC1=O (stereo not drawn) | > 100 µM | > 100 µM | > 100 µM | > 100 µM | > 100 µM | > 100 µM | > 100 µM | > 100 µM | > 100 µM | > 100 µM |  |  |  |  |  |  |  |  |
| N/C(=N\N=C\c1cc2ccccc2s1)c1cnccn1 | > 100 µM | > 100 µM | > 100 µM | > 100 µM | > 100 µM | > 100 µM | > 100 µM | > 100 µM | > 100 µM | > 100 µM |  |  |  |  |  |  |  |  |
| Cc1cc(OCc2nc(N)nc(N)c2-c2ccc(Cl)c(Cl)c2)ccc1[N+](=O)[O-] | > 65 µM | 12 µM | 21.5 µM | 22.9 µM | 21.6 µM | 25.9 µM | > 55.1 µM | 1.88 µM | 3.56 µM | 37.8 µM |  |  |  |  |  |  |  |  |
| Cc1ccc(S(=O)(=O)NC(=O)Nc2c(S(N)(=O)=O)cc(S(N)(=O)=O)c(Cl)c2Cl)cc1 |  |  | > 100 µM | > 100 µM |  | > 100 µM | > 100 µM | > 100 µM | > 100 µM | > 100 µM |  |  |  |  |  |  |  |  |
| Cc1nc2cn3c(c2c(=O)[nH]1)CCCCC3 | > 100 µM | > 100 µM | > 100 µM |  | > 100 µM |  | > 100 µM | > 100 µM | > 100 µM | > 100 µM |  |  |  |  |  |  |  |  |
| Cc1c(C)c2c(c(C)c1OC(=O)CCC(=O)[O-])CCC(C)(CCCCCCCCCCC[P+](c1ccccc1)(c1ccccc1)c1ccccc1)O2 (stereo not drawn) | 0.899 µM |  | 0.67 µM |  |  | 0.615 µM |  | 0.727 µM | 0.566 µM | 0.747 µM |  |  | 0.218 µM | 0.14 µM | 0.194 µM | 0.179 µM | 0.165 µM | 0.177 µM |
| O=S(=O)(O)c1ccc2c(N=Nc3cccc4ccccc34)c(O)ccc2c1 | > 100 µM | > 100 µM | > 100 µM | > 100 µM | > 100 µM | > 100 µM | > 100 µM | > 100 µM | > 100 µM | > 100 µM |  |  |  |  |  |  |  |  |
| CCCCn1c(-c2ccccc2)cs/c1=N\N=C1C=C(C(C)(C)C)C(=O)C(C(C)(C)C)=C1 |  | > 100 µM |  |  | > 100 µM | > 100 µM | > 100 µM | > 100 µM | > 100 µM | > 100 µM |  |  |  |  |  |  |  |  |
| O=c1oc2cc(O)ccc2c2[nH]c3cc(O)ccc3c12 |  | 59.6 µM |  |  | 47.5 µM | > 100 µM | > 100 µM | 31.7 µM | > 100 µM | 33.8 µM |  |  |  |  |  |  |  |  |
| CC1CC(=O)Nc2ccc(Cl)cc2N1C(=O)CN1CCC(CCCCN(C)C)CC1 (stereo not drawn) |  | > 100 µM |  |  |  | > 100 µM | > 100 µM | > 100 µM | > 100 µM | > 100 µM |  |  |  |  |  |  |  |  |
| Oc1ccc(-c2c3ccccc3c(-c3ccc(O)cc3)c3ccccc23)cc1 |  | > 100 µM |  |  | > 100 µM | > 100 µM | > 100 µM | > 100 µM | > 100 µM | > 100 µM |  |  |  |  |  |  |  |  |
| CC(=O)Nc1ccc(NC(=O)CC(=O)Nc2ccc(NC(C)=O)cc2)cc1 | > 100 µM |  | > 100 µM | > 100 µM |  | > 100 µM | > 100 µM | 23.4 µM | > 100 µM | > 100 µM |  |  |  |  |  |  |  |  |
| Cc1cc(C)cc(Nc2nnc3n2S(=O)(=O)c2cc(C)c(Cl)cc2S3)c1 | 97 µM | 41.6 µM | 91.2 µM |  | 17.2 µM | 48.5 µM | 49.3 µM | 34.9 µM | > 100 µM | 21.3 µM |  |  |  |  |  |  |  |  |
| c1ccc(-c2csc3c2-n2cccc2C3N2CCCC2)cc1 (stereo not drawn) | > 100 µM | > 100 µM | > 100 µM | > 100 µM | > 100 µM | > 100 µM | > 100 µM |  | > 100 µM | > 100 µM |  |  |  |  |  |  |  |  |
| N=c1c2sc3nc4ccccc4n3c2ncn1Cc1ccccc1 | > 100 µM | > 100 µM | > 100 µM | > 100 µM | > 100 µM |  | > 100 µM | > 100 µM |  | > 100 µM |  |  |  |  |  |  |  |  |
| OC1(c2ccccc2)CC2CCC(C1)N2CCCC(O)(c1ccccc1)c1ccccc1 (stereo not drawn) | 56.8 µM | 29 µM | 24.8 µM |  | 24.3 µM | 39.1 µM | 42.9 µM | 28.5 µM | > 100 µM | 22.4 µM |  |  |  |  |  |  |  |  |
| COC1(OC)CC2C(=O)N(Cc3ccccc3)C1C(S(=O)(=O)c1ccccc1)C2C(C)S(=O)(=O)c1ccccc1 (stereo not drawn) |  | > 100 µM |  |  | > 100 µM | > 100 µM | > 100 µM | > 100 µM | > 100 µM | > 100 µM |  |  |  |  |  |  |  |  |
| CN(C(=O)[C@H](NC(=O)OCc1ccccc1)c1ccccc1)C1CCCCC1N1CCCC1 (stereo partly drawn) | > 100 µM | > 100 µM | > 100 µM | > 100 µM | > 100 µM | > 100 µM | > 100 µM | > 100 µM |  | > 100 µM |  |  |  |  |  |  |  |  |
